From PubChem BioAssay AID330 (DTP/NCI, 2004)
Several values for one entry are separate records, joined by “and”; a condition that tells them apart may be missing. Identical values can stand only once. Inconclusive results and toxic doses are left out.

Test system: P388 leukemia ip, CD2F1 mice, survival T/C
Assay: NCI In Vivo Anticancer Drug Screen. Data for tumor model P388 Leukemia (intraperitoneal) in CD2F1 (CDF1) mice
Conditions: endpoint: median survival time, higher = longer survival
Outline: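 Mice carrying the transplanted tumor received test compound or vehicle. Survival was recorded in each group, and the value is the treated-group measurement divided by that of the vehicle-treated control group.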

[1] = dose: 50.0 mg/kg/injection, schedule: Q01DX005 (ip), vehicle: saline
[2] = dose: 50.0 mg/kg/injection, schedule: Q01DX005 (ip), vehicle: Klucel (hydroxypropylcellulose) (HPC)

## OC(c1ccccc1I1OC(C(F)(F)F)(C(F)(F)F)c2ccccc21)(C(F)(F)F)C(F)(F)F (tested in a mixture with another compound)
dose: 1.56 mg/kg/injection, schedule: Q01DX005 (ip), vehicle: Klucel (hydroxypropylcellulose) (HPC)
  T/C: 99 % of control
dose: 3.12 mg/kg/injection, schedule: Q01DX005 (ip), vehicle: Klucel (hydroxypropylcellulose) (HPC)
  T/C: 93 % of control
dose: 6.25 mg/kg/injection, schedule: Q01DX005 (ip), vehicle: Klucel (hydroxypropylcellulose) (HPC)
  T/C: 98 % of control

## c1cc2n3c1CCc1ccc(n1CC3)CC2
dose: 8.0 mg/kg/injection, schedule: Q01DX009 (ip), vehicle: saline with Tween-80
  T/C: 100 % of control
dose: 16.0 mg/kg/injection, schedule: Q01DX009 (ip), vehicle: saline with Tween-80
  T/C: 100 % of control
dose: 32.0 mg/kg/injection, schedule: Q01DX009 (ip), vehicle: saline with Tween-80
  T/C: 100 % of control

## COC(=O)c1ncn(C(C(=O)OC)C(=O)OC)c1O
dose: 60.0 mg/kg/injection, schedule: Q01DX005 (ip), vehicle: saline with Tween-80
  T/C: 104 % of control
dose: 120.0 mg/kg/injection, schedule: Q01DX005 (ip), vehicle: saline with Tween-80
  T/C: 100 % of control
dose: 240.0 mg/kg/injection, schedule: Q01DX005 (ip), vehicle: saline with Tween-80
  T/C: 113 % of control

## Cc1cc(=O)n2c(nc3cc(C)c(C)cc32)s1
dose: 50.0 mg/kg/injection, schedule: Q01DX009 (ip), vehicle: Klucel (hydroxypropylcellulose) (HPC)
  T/C: 103 % of control
dose: 100.0 mg/kg/injection, schedule: Q01DX009 (ip), vehicle: Klucel (hydroxypropylcellulose) (HPC)
  T/C: 100 % of control

## Cc1csc(Cl)c1NC1=NCCN1
[1]
  T/C: 104 % of control
dose: 100.0 mg/kg/injection, schedule: Q01DX005 (ip), vehicle: saline
  T/C: 107 % of control

## CCCNC(=O)CCC(NS(=O)(=O)c1ccccc1)C(=O)O (configuration not stated)
dose: 100.0 mg/kg/injection, schedule: Q04DX002 (ip), vehicle: Klucel (hydroxypropylcellulose) (HPC)
  T/C: 91 % of control
dose: 200.0 mg/kg/injection, schedule: Q04DX002 (ip), vehicle: Klucel (hydroxypropylcellulose) (HPC)
  T/C: 102 % of control
dose: 400.0 mg/kg/injection, schedule: Q04DX002 (ip), vehicle: Klucel (hydroxypropylcellulose) (HPC)
  T/C: 96 % of control

## CCOC(=O)C1C(C(=O)c2ccccc2)C12C(=O)N(C)c1ccccc12 (configuration not stated)
dose: 12.5 mg/kg/injection, schedule: Q04DX002 (ip), vehicle: saline with Tween-80
  T/C: 103 % of control
dose: 25.0 mg/kg/injection, schedule: Q04DX002 (ip), vehicle: saline with Tween-80
  T/C: 107 % of control
dose: 50.0 mg/kg/injection, schedule: Q04DX002 (ip), vehicle: saline with Tween-80
  T/C: 103 % of control

## CC(C)C1C(=O)NC(c2ccc(N)cc2)c2ccccc21 (configuration not stated)
dose: 12.5 mg/kg/injection, schedule: Q01DX009 (ip), vehicle: saline with Tween-80
  T/C: 104 % of control
dose: 25.0 mg/kg/injection, schedule: Q01DX009 (ip), vehicle: saline with Tween-80
  T/C: 94 % of control
dose: 50.0 mg/kg/injection, schedule: Q01DX009 (ip), vehicle: saline with Tween-80
  T/C: 93 % of control
dose: 50.0 mg/kg/injection, schedule: Q01DX009 (ip), vehicle: saline
  T/C: 105 % of control
dose: 200.0 mg/kg/injection, schedule: Q01DX009 (ip), vehicle: saline
  T/C: 90 % of control

## O=C1CCOc2cccc(c2)OCCC(=O)OCCCOC(=O)CCOc2cccc(c2)OCCC(=O)OCCCO1
dose: 12.5 mg/kg/injection, schedule: Q01DX005 (ip), vehicle: saline
  T/C: 103 % of control
dose: 25.0 mg/kg/injection, schedule: Q01DX005 (ip), vehicle: saline
  T/C: 107 % of control
[2]
  T/C: 96 % of control
[1]
  T/C: 98 % of control

## COP(=O)(O)NS(=O)(=O)c1ccccc1
dose: 100.0 mg/kg/injection, schedule: Q01DX001 (ip), vehicle: saline
  T/C: 101 % of control
dose: 200.0 mg/kg/injection, schedule: Q01DX001 (ip), vehicle: saline
  T/C: 101 % of control
dose: 400.0 mg/kg/injection, schedule: Q01DX001 (ip), vehicle: saline
  T/C: 102 % of control

## O=C1OC(OC2OC(=O)C(Cl)=C2Cl)C(Cl)=C1Cl (configuration not stated)
dose: 12.5 mg/kg/injection, schedule: Q01DX005 (ip), vehicle: saline with Tween-80
  T/C: 104 % of control and 109 % of control
dose: 25.0 mg/kg/injection, schedule: Q01DX005 (ip), vehicle: saline with Tween-80
  T/C: 116 % of control and 117 % of control

## COC/C(Br)=C\SC#N (tested in a mixture with another compound)
dose: 3.75 mg/kg/injection, schedule: Q01DX005 (ip), vehicle: saline with Tween-80
  T/C: 120 % of control
dose: 7.5 mg/kg/injection, schedule: Q01DX005 (ip), vehicle: saline with Tween-80
  T/C: 122 % of control

## O=C1C=C(Cl)C(=O)C2=C1CCCC2
dose: 6.25 mg/kg/injection, schedule: Q04DX002 (ip), vehicle: saline with Tween-80
  T/C: 97 % of control

## COc1ccc(/C=C/C(=O)OC2CC34CCNC35CC(OC5(OC)C2OC)c2ccc(OC)c(O)c24)cc1O (configuration not stated)
dose: 12.5 mg/kg/injection, schedule: Q01DX005 (ip), vehicle: Klucel (hydroxypropylcellulose) (HPC)
  T/C: 100 % of control
dose: 25.0 mg/kg/injection, schedule: Q01DX005 (ip), vehicle: Klucel (hydroxypropylcellulose) (HPC)
  T/C: 100 % of control
[2]
  T/C: 97 % of control

## CN(/N=C\c1cc(Cl)cc(Cl)c1O)c1ccccc1[N+](=O)[O-]
[2]
  T/C: 101 % of control
dose: 100.0 mg/kg/injection, schedule: Q01DX005 (ip), vehicle: Klucel (hydroxypropylcellulose) (HPC)
  T/C: 95 % of control
dose: 200.0 mg/kg/injection, schedule: Q01DX005 (ip), vehicle: Klucel (hydroxypropylcellulose) (HPC)
  T/C: 101 % of control
